# In patent publication US12286423B2, “Antiviral 1,3-di-oxo-indene compounds” (Novartis AG, priority 2020, dated 2025):
# Columns and labels:
# Format in all cases: cell-based
# HRV B14 = HRV B14 CPE inhibition assay; conditions: Human rhinovirus sp.; HRV B14, cytopathic effect inhibition
# Protocol: (§1) Bioactivity of the Compounds of the Invention was Determined Using the Following Methods. Determination of Drug Efficacy Against Picornaviruses Using Cytopathic Effect (CPE) Inhibition Assay
# (§2) In the assay, HeLa (human cervical cancer cells), MRC-5 (human fetal lung fibroblast cells), and RD cells (derived from human rhabdomyosarcoma) were employed. For comparison, ribavirin (Riv), Pleconaril (pleco), and […] (BTA) were used as controls. Reagents were dissolved at a concentration of 10-40 mg/ml in 100% dimethyl sulfoxide (DMSO). Water-soluble reagents were dissolved in PBS (−) solution and stored at −20° C. On the day of the experiment, they were used in 3 fold to 5 fold concentrations in such a manner that the concentration of dimethyl sulfoxide in each well was between 0.5% and 1%.
# (§3) Pharmaceutical efficacy was determined using a virus-induced cytopathic effect (CPE) inhibition assay. In this regard, after cells suitable for viruses were grown in 96-well plates, dilutions of viruses in DME supplemented with 2% FBS (DME/2% FBS) or MEM supplemented with 2% FBS (MEM/2% FBS) were inoculated in an amount of […] with a concentration corresponding to 100 CCID50 (50% cell culture infective dose) into each well of the plates, and incubated for 30 min-1 hr at 33° C. or 37° C. to allow the viruses to adsorb onto the cells. The culture medium was removed before aliquots of drug dilutions with various concentrations were added in an amount of 100 μl to each well. While HRV (human rhinovirus) was grown at 33° C., the other viruses were incubated in a 37° C. CO2 incubator for 2-3 days. Alternatively, the cells were cultured for 2-3 days without removal of the medium after they were added with 50 μl of each drug dilution having a 2-fold higher concentration and then with 50 μl of the virus dilution. Viruses were incubated in host HeLa cells at 37° C. for 2-3 days in DME/2% or MEM/2% FBS.
# (§4) For HeLa cells, the drugs were measured for EC50 (50% maximal effective concentration), which is the concentration of a drug inducing a response halfway between the baseline and maximum, using an MTT assay. With regard to RD and MRC-5 cells, CPE was determined using FDA (Fluorescein diacetate) or MTT. In order to determine the effect of drug toxicity on efficacy results, at the time of inoculation with the virus, mock-infection was also included. A virus-free medium was added to a cell culture, which was then subjected to the same treatment as the mock-infected cells inoculated with the virus. That is, the medium was removed after one hour of incubation, and dilutions of drugs in the medium were added once more. Following incubation for 2-3 days, the cells were observed under a microscope and the drugs were determined for CC50 (50% cytotoxic concentration) at which 50% of the cells were killed, using an MTT assay in which counts of viable cells in mock-infected wells containing drugs were compared to those of viable cells in control wells containing no drugs. In an FDA hydrolysis assay, FDA was added to each well after removal of the medium, and incubated for 20-30 min before fluorescence intensity was measured using a spectrofluorometer to determine CPE in the same manner as in MTT.
# (§5) In addition, antiviral effects can be calculated using Mathematical Formula 2 below: Antiviral Effect=[A(Drug/Virus)−A(Virus Control)/A(Cell control)−A(Virus Control)]
# (§6) If the survival rate is 100%, its antiviral effect is 100% whereas if the survival rate is 0%, its antiviral effect is none. […]
# (§7) Specifically, cells grown to confluence in 96-well plates were infected with 100 50% cell culture infected doses (CCID50) of virus. After an adsorption period of 2 hrs at 37° C., the virus was removed and serial dilutions of the compounds were added. […] After removal of the medium, 90 μl of a culture medium and 10 μl of MTS-phenazine methosulfate (Promega, Leiden, The Netherlands) were added to each well. […]
# HRV A16 = HRV A16 CPE inhibition assay; conditions: Human rhinovirus sp.; HRV A16, cytopathic effect inhibition
# Protocol: as §1, §2, §3, §4, §5, §6, §7
# HRV A1B = HRV A1B CPE inhibition assay; conditions: Human rhinovirus sp., cytopathic effect inhibition, read-out: HRV A1B_CPE (EC50 μM)
# Protocol: as §1, §2, §3, §4, §5, §6, §7
# HRV A29 = HRV A29 CPE inhibition assay; conditions: Human rhinovirus sp.; HRV A29, cytopathic effect inhibition
# Protocol: as §1, §2, §3, §4, §5, §6, §7
# [1] = Cytotoxicity (CC50) in mock-infected cells, MTT assay; conditions: human, HeLa cells (mock-infected), 50% cytotoxic concentration, read-out: CYTOTOX (CC50 μM)
# Protocol: as §4
# That is, the survival rate (% survival) of mock-infected cells for cytotoxicity measurement was calculated using the Mathematical Formula 1 below: Cell Drug=Survival by [A(Drug)−A(Background solution)/A(Cell control)−A(Background×100% Solution)]
# While 100% cell survival means no cytotoxicity of the drug, the highest cytotoxicity is reflected by 0% cell survival. The 50% cytotoxic concentration was defined as the concentration required to reduce the cell number by 50%. This concentration of the drug is represented as CC50. Higher values mean lower cytotoxicity. […]
# In Mathematical Formulae 3 and 4 above, • OD (CC) represents the OD of the background cell culture that is neither induced by a virus nor treated by chemical, • OD (VC) represents the OD of the control cell culture that is induced by a virus but not treated by chemical, • OD (Virus+Compound) represents the OD of the cell culture infected by a virus that has been treated with a concentrated compound, • OD (Compound) represents the OD of the cell culture that has been treated with a concentrated compound only, and • OD (Blank) represents the OD of the well to which only the cell culture has been added.
# The effective concentration (EC50) represents the concentration of a drug at which 50% of cells are allowed to survive by CPE of an induced virus, and the cytotoxicity concentration (CC50) represents the concentration of a drug at which a compound has killed 50% of cells, and they were calculated by the logarithmic interpolation.
# C15_C3 REPLICON = assay: C15_C3 replicon assay
SMILES,EC50 (HRV B14),EC50 (HRV A16),EC50 (HRV A1B),EC50 (HRV A29),CC50 [1],EC50 (C15_C3 REPLICON)
"C[C@@H](c1ccc2c(c1)O[C@]1(O)c3cccc(N)c3C(=O)[C@]21NC(=O)c1cccc(O)n1)C1CC1 [Example 8, N-((4bR,9bR)-1-amino-7-((R)-1-cyclopropylethyl)-4b-hydroxy-10-oxo-4b,10-dihydro-9bH-indeno[1,2-b]benzofuran-9b-yl)-6-hydroxypicolinamide]",0.016 µM,0.068 µM,0.031 µM,0.035 µM,35 µM,5.33 µM
"Cc1cc(S(=O)(=O)N2CCN(C)CC2)[nH]c1C(=O)NC12C(=O)c3c(N)cccc3C1(O)Oc1cc(C(C)C)ccc12 (centres unmarked) [Example 13, N-(1-amino-4b-hydroxy-7-isopropyl-10-oxo-4b,10-dihydro-9bH-indeno[1,2-b]benzofuran-9b-yl)-3-methyl-5-((4-methylpiperazin-1-yl)sulfonyl)-1H-pyrrole-2-carboxamide]",0.016 µM,0.027 µM,0.016 µM,0.05 µM,32.1 µM,0.682 µM
"Cc1c(C(=O)N[C@]23C(=O)c4c(N)cccc4[C@@]2(O)Oc2cc([C@H](C)C4CC4)ccc23)[nH]c(=O)n1C [Example 22, N-((4bR,9bR)-1-amino-7-((R)-1-cyclopropylethyl)-4b-hydroxy-10-oxo-4b,10-dihydro-9bH-indeno[1,2-b]benzofuran-9b-yl)-1,5-dimethyl-2-oxo-2,3-dihydro-1H-imidazole-4-carboxamide]",0.016 µM,0.063 µM,0.041 µM,0.023 µM,34.9 µM,1.89 µM
"C[C@@H](c1ccc2c(c1)O[C@]1(O)c3cccc(N)c3C(=O)[C@]21NC(=O)CN1CCC1)C1CC1 [Example 17, N-((4bR,9bR)-1-amino-7-((R)-1-cyclopropylethyl)-4b-hydroxy-10-oxo-4b,10-dihydro-9bH-indeno[1,2-b]benzofuran-9b-yl)-2-(azetidin-1-yl)acetamide]",0.016 µM,0.07 µM,0.016 µM,0.018 µM,24.5 µM,1.36 µM
"C[C@H](c1ccc2c(c1)O[C@]1(O)c3cccc(N)c3C(=O)[C@]21NC(=O)CN1CCC1)C1CC1 [Example 5, N-((4bR,9bR)-1-amino-7-((S)-1-cyclopropylethyl)-4b-hydroxy-10-oxo-4b,10-dihydro-9bH-indeno[1,2-b]benzofuran-9b-yl)-2-(azetidin-1-yl)acetamide]",0.016 µM,0.072 µM,0.036 µM,0.039 µM,19.2 µM,1.35 µM
"Cc1c(S(C)(=O)=O)c[nH]c1C(=O)N[C@]12C(=O)c3c(N)cccc3[C@@]1(O)Oc1cc([C@H]3C[C@@H]3C)ccc12 [Example 28, N-((4bR,9bR)-1-amino-4b-hydroxy-7-((1S,2S)-2-methylcyclopropyl)-10-oxo-4b,10-dihydro-9bH-indeno[1,2-b]benzofuran-9b-yl)-3-methyl-4-(methylsulfonyl)-1H-pyrrole-2-carboxamide]",0.016 µM,0.16 µM,0.037 µM,0.045 µM,19.8 µM,1.85 µM
"Cc1cc(S(=O)(=O)N2CCN(C)CC2)[nH]c1C(=O)NC12C(=O)c3c(N)cccc3C1(O)Oc1cc([C@H]3C[C@H]3C)ccc12 (stereo partly drawn) [Example 24, N-(1-amino-4b-hydroxy-7-((1S,2R)-2-methylcyclopropyl)-10-oxo-4b,10-dihydro-9bH-indeno[1,2-b]benzofuran-9b-yl)-3-methyl-5-((4-methylpiperazin-1-yl)sulfonyl)-1H-pyrrole-2-carboxamide]",0.016 µM,0.039 µM,0.016 µM,0.037 µM,28.4 µM,0.34 µM
"Cc1cc(S(C)(=O)=O)[nH]c1C(=O)NC12C(=O)c3c(N)cccc3C1(O)Oc1cc(C3C[C@H]3C)ccc12 (stereo in doubt) [Example 21, N-(1-amino-4b-hydroxy-7-((1S,2R)-2-methylcyclopropyl)-10-oxo-4b,10-dihydro-9bH-indeno[1,2-b]benzofuran-9b-yl)-3-methyl-5-(methylsulfonyl)-1H-pyrrole-2-carboxamide]",0.016 µM,0.026 µM,0.07 µM,0.074 µM,37.3 µM,2.91 µM
"Cc1c(C(=O)N[C@]23C(=O)c4c(N)cccc4[C@@]2(O)Oc2cc([C@@H](C)C4CC4)ccc23)[nH]c(=O)n1C [Example 18, N-((4bR,9bR)-1-amino-7-((S)-1-cyclopropylethyl)-4b-hydroxy-10-oxo-4b,10-dihydro-9bH-indeno[1,2-b]benzofuran-9b-yl)-1,5-dimethyl-2-oxo-2,3-dihydro-1H-imidazole-4-carboxamide]",–,0.05 µM,0.018 µM,0.016 µM,31.8 µM,1.65 µM
"Cc1c(S(C)(=O)=O)c[nH]c1C(=O)NC12C(=O)c3c(N)cccc3C1(O)Oc1cc([C@H]3C[C@H]3C)ccc12 (stereo partly drawn) [Example 27, N-(1-amino-4b-hydroxy-7-((1S,2R)-2-methylcyclopropyl)-10-oxo-4b,10-dihydro-9bH-indeno[1,2-b]benzofuran-9b-yl)-3-methyl-4-(methylsulfonyl)-1H-pyrrole-2-carboxamide]",0.016 µM,0.084 µM,0.02 µM,0.079 µM,40.4 µM,0.705 µM
"Cc1cc(S(C)(=O)=O)[nH]c1C(=O)NC12C(=O)c3c(N)cccc3C1(O)Oc1cc([C@@H]3C[C@@H]3C)ccc12 (stereo partly drawn) [Example 26, N-(1-amino-4b-hydroxy-7-((1R,2S)-2-methylcyclopropyl)-10-oxo-4b,10-dihydro-9bH-indeno[1,2-b]benzofuran-9b-yl)-3-methyl-5-(methylsulfonyl)-1H-pyrrole-2-carboxamide]",0.016 µM,0.093 µM,0.17 µM,0.274 µM,37.1 µM,8.37 µM
"C[C@H](c1ccc2c(c1)O[C@]1(O)c3cccc(N)c3C(=O)[C@]21NC(=O)c1cccc(O)n1)C1CC1 [Example 3, N-((4bR,9bR)-1-amino-7-((S)-1-cyclopropylethyl)-4b-hydroxy-10-oxo-4b,10-dihydro-9bH-indeno[1,2-b]benzofuran-9b-yl)-6-hydroxypicolinamide]",0.016 µM,0.057 µM,0.033 µM,0.02 µM,32.3 µM,4.81 µM
